Series [1] relates to NQO1 activity in Hepa1c1c7 cells. Nature of the series: NAD(P)H: quinone oxidoreductase-1 (NQO1) enzyme induction assay (in vitro). Type of series: cell-based, mouse. The settings on record: Mus musculus, Hepa-1c1c7, NQO1 activity with 400 nM test compound as a ratio from the base without compound, about 48 hr. Summed up: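 Mouse Hepa1c1c7 hepatoma cells treated 48 hr with 400 nM compound (final). NQO1 activity in lysates read by absorbance at 610 nm; value is background-subtracted activity ratio versus untreated cells.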

Series [2] concerns the target binding between Nrf2 and Keap1 (Homo sapiens (Human), UniProt Q14145). Nature of the series: FP assay (in vitro): inhibition of Nrf2-Keap1 binding by fluorescence polarization. The settings on record: GST-fused human Keap1 (325-642) 20 nM, FITC-labeled Nrf2 peptide 10 nM, 2 hr at room temperature.
Series [3] is described as follows: Measurement test of plasma drug concentration after oral administration in rats. Type of series: in vivo. Particulars: male SD rats, 10 mg/2 mL/kg in 0.5% methylcellulose; for AUC(0-t): rat, plasma, 10 mg/kg, read-out: AUC0-24. The procedure:
10 mg/2 mL/kg of the test compound suspended in 0.5% methylcellulose solution were force-fed to Male SD rats (7 weeks old, Japan SLC). Blood was collected from the jugular vein using a syringe with heparin at 0.5, 1, 2, 4, 6, and 24 hr after administration. After blood collection, to 20 μL of centrifuged plasma was added an equal volume of acetonitrile followed by 200 μL of internal standard (IS) solution. After agitation, all the supernatant after centrifugation was filtered, and the collected filtrate was used as the assay sample. Equal volumes of the test compound solution prepared in acetonitrile were added to blank plasma, and the samples processed in the same manner as above were used as samples for the calibration curve. The prepared samples were measured using LC/MS/MS, and the area under the blood concentration-time curve (AUC) was calculated from the compound concentration in plasma.

Chain of binding between Nrf2 and Keap1 (Q14145 325-624 limits assumed): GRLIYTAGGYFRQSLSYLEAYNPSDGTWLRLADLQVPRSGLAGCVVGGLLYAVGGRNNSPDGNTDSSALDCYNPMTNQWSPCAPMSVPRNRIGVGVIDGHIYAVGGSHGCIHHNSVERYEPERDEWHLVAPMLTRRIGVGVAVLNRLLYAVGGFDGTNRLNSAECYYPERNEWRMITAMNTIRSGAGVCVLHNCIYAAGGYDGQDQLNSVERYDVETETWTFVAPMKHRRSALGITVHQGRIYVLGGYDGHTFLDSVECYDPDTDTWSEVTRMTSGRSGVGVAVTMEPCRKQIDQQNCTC

Usually fold induction stands for the ratio of treated to control signal. Usually IC50 stands for the concentration that inhibits the measured activity by half. With `CC[C@@H]1CN(Cc2cc([C@H](CC(=O)O)c3ccc4c(nnn4C)c3C)cc3c2CCC3)S(=O)(=O)c2cc(Cl)cnc2O1` [Example 4, (3S)-3-(7-{[(4R)-8-Chloro-4-ethyl-1,1-dioxido-3,4-dihydro-2H-pyrido[2,3-b][1,4,5]oxathiazepin-2-yl]methyl}-2,3-dihydro-1H-inden-5-yl)-3-(1,4-dimethyl-1H-benzotriazol-5-yl)propanoic acid], the fold induction at 0.4 µM in series [1] was greater than 5. The same molecule gave an IC50 in series [2] of no more than 10 nM. In series [3], the “maximam plasma concentration” value amounted to 0.029 µM and the AUC(0-t) came to 0.05 µM·h.

In the case of `CC[C@@H]1CN(Cc2cc([C@H](CC(=O)O)c3ccc4c(nnn4C)c3C)cc3ccsc23)S(=O)(=O)c2cc(Cl)cnc2O1` [Example 7, (3S)-3-(7-{[(4R)-8-Chloro-4-ethyl-1,1-dioxido-3,4-dihydro-2H-pyrido[2,3-b][1,4,5]oxathiazepin-2-yl]methyl}-1-benzothiophen-5-yl)-3-(1,4-dimethyl-1H-benzotriazol-5-yl)propanoic acid], in series [1], the fold induction at 0.4 µM was greater than 5. For the same molecule, the half-inhibitory concentration (IC50) in series [2] is no more than 10 nM. Also, in series [3], the “maximam plasma concentration” value amounted to 0.009 µM and the AUC(0-t) worked out at 0.03 µM·h.

As to `CC[C@@H]1CN(Cc2cc([C@@H](CC(=O)O)c3ccc4c(nnn4C)c3C)cc3ccsc23)S(=O)(=O)c2cc(Cl)cnc2O1` [Example 8, (3R)-3-(7-{[(4R)-8-Chloro-4-ethyl-1,1-dioxido-3,4-dihydro-2H-pyrido[2,3-b][1,4,5]oxathiazepin-2-yl]methyl}-1-benzothiophen-5-yl)-3-(1,4-dimethyl-1H-benzotriazol-5-yl)propanoic acid], the fold induction at 0.4 µM in series [1] was greater than 5. This molecule also yielded an IC50 in series [2] of no more than 10 nM. Moreover, in series [3], the “maximam plasma concentration” value is 0.005 µM and the AUC(0-t) is 0.023 µM·h.

Turning to `CC[C@@H]1CN(Cc2cc([C@@H](CC(=O)O)c3ccc4c(nnn4C)c3C)cc3c2CCC3)S(=O)(=O)c2cc(Cl)cnc2O1` [Example 5, (3R)-3-(7-{[(4R)-8-Chloro-4-ethyl-1,1-dioxido-3,4-dihydro-2H-pyrido[2,3-b][1,4,5]oxathiazepin-2-yl]methyl}-2,3-dihydro-1H-inden-5-yl)-3-(1,4-dimethyl-1H-benzotriazol-5-yl)propanoic acid], the fold induction at 0.4 µM in series [1] is greater than 5. In series [2], this molecule returned a concentration for half-maximal inhibition (IC50) of 10 to 30 nM. Moreover, in series [3], the “maximam plasma concentration” value stood at 0.006 µM and the AUC(0-t) was 0.035 µM·h.

With `Cc1c([C@@H](CC(=O)O)c2cc3c(c(CN4CC5(CC5)Oc5ncc(Cl)cc5S4(=O)=O)c2)CCC3)ccc2c1nnn2C` [Example 43, (3S)-3-{7-[(8′-Chloro-1′,1′-dioxido-spiro[cyclopropane-1,4′-pyrido[2,3-b][1,4,5]oxathiazepine]-2′(3′H)-yl)methyl]-2,3-dihydro-1H-inden-5-yl}-3-(1,4-dimethyl-1H-benzotriazol-5-yl)propanoic acid], the fold induction at 0.4 µM in series [1] was greater than 5. The same molecule returned a half-maximal inhibitory concentration (IC50) in series [2] of no more than 10 nM.

As to `CC[C@@H]1CN(Cc2cc([C@@H](CC(=O)O)c3cc(OC(F)F)c4c(nnn4C)c3C)cc3ccsc23)S(=O)(=O)c2cc(Cl)cnc2O1` [Example 32, (3R)-3-(7-{[(4R)-8-Chloro-4-ethyl-1,1-dioxido-3,4-dihydro-2H-pyrido[2,3-b][1,4,5]oxathiazepin-2-yl]methyl}-1-benzothiophen-5-yl)-3-[7-(difluoromethoxy)-1,4-dimethyl-1H-benzotriazol-5-yl]propanoic acid], in series [1], the fold induction at 0.4 µM is greater than 5. For the same molecule, the half-inhibitory concentration (IC50) in series [2] was no more than 10 nM.

For `CC[C@@H]1CN(Cc2cc([C@H](CC(=O)O)c3cc(Cl)c4c(nnn4C)c3C)cc3ccsc23)[C@@H](C)c2ncccc2O1` [Example 64, (3S)-3-(7-Chloro-1,4-dimethyl-1H-benzotriazol-5-yl)-3-(7-{[(2R,5S)-2-ethyl-5-methyl-2,3-dihydropyrido[2,3-f][1,4]oxazepin-4(5H)-yl]methyl}-1-benzothiophen-5-yl)propanoic acid], the fold induction at 0.4 µM in series [1] is 3 to 5. In series [2], this molecule displayed a 50% inhibitory concentration (IC50) of no more than 10 nM.

For `CC[C@@H]1CN(Cc2cc([C@@H](CC(=O)O)c3cc(OC(F)(F)F)c4c(nnn4C)c3C)cc3ccsc23)S(=O)(=O)c2cc(Cl)cnc2O1` [Example 45, (3R)-3-(7-{[(4R)-8-Chloro-4-ethyl-1,1-dioxido-3,4-dihydro-2H-pyrido[2,3-b][1,4,5]oxathiazepin-2-yl]methyl}-1-benzothiophen-5-yl)-3-[1,4-dimethyl-7-(trifluoromethoxy)-1H-benzotriazol-5-yl]propanoic acid], the fold induction at 0.4 µM in series [1] was greater than 5. For the same molecule, the IC50 in series [2] is no more than 10 nM.

Regarding `C[C@@H]1CN(Cc2cc(C(CC(=O)O)c3ccc4c(nnn4C)c3Cl)cc3c2CCC3)S(=O)(=O)c2ccccc2O1` (stereo partly drawn) [Example 95, 3-(4-Chloro-1-methyl-1H-benzotriazol-5-yl)-3-(7-{[(4R)-4-methyl-1,1-dioxido-3,4-dihydro-2H-5,1,2-benzoxathiazepin-2-yl]methyl}-2,3-dihydro-1H-inden-5-yl)propanoic acid], in series [1], the fold induction at 0.4 µM was greater than 5. The molecule further registered a 50% inhibitory concentration (IC50) in series [2] of no more than 10 nM.

The values above are taken from patent US20250092064A1, “BENZOTRIAZOLE COMPOUND” (DAIICHI SANKYO COMPANY, LIMITED, priority 2022, published 2025).
